Test results as given in patent publication US9371320B2, “Heterocyclic compound” (TAKEDA PHARMACEUTICAL COMPANY LIMITED, priority 2012, dated 2016).

Assays:
Tyk2 = biological target: T1, Tyk2 (Homo sapiens, UniProt P29597); assay: Tyk2 enzyme inhibition test (LANCE method); format: biochemical; details: test compound 1 μM; read-out: Inhibitory rate (%) Tyk2 1 μM
T1 construct: purchased Invitrogen
Outline: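 Recombinant Tyk2 (375 ng/mL stock) with ULight-JAK1 peptide (300 nM stock) and ATP (30 μM stock) in HEPES pH 7.5/MgCl2/EGTA/DTT buffer, 1 h at room temperature. Stopped with EDTA plus Eu-anti-phosphotyrosine antibody; TR-FRET read at 665 nm after 1 h. No-enzyme wells define 100% inhibition.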

JAK1 = biological target: T2, JAK1 (Homo sapiens, UniProt P23458); assay: JAK1 enzyme inhibition test (LANCE method); format: biochemical; details: test compound 1 μM; read-out: Inhibitory rate (%) JAK1 1 μM
T2 construct: purchased Invitrogen
T2 sequence (P23458 whole entry): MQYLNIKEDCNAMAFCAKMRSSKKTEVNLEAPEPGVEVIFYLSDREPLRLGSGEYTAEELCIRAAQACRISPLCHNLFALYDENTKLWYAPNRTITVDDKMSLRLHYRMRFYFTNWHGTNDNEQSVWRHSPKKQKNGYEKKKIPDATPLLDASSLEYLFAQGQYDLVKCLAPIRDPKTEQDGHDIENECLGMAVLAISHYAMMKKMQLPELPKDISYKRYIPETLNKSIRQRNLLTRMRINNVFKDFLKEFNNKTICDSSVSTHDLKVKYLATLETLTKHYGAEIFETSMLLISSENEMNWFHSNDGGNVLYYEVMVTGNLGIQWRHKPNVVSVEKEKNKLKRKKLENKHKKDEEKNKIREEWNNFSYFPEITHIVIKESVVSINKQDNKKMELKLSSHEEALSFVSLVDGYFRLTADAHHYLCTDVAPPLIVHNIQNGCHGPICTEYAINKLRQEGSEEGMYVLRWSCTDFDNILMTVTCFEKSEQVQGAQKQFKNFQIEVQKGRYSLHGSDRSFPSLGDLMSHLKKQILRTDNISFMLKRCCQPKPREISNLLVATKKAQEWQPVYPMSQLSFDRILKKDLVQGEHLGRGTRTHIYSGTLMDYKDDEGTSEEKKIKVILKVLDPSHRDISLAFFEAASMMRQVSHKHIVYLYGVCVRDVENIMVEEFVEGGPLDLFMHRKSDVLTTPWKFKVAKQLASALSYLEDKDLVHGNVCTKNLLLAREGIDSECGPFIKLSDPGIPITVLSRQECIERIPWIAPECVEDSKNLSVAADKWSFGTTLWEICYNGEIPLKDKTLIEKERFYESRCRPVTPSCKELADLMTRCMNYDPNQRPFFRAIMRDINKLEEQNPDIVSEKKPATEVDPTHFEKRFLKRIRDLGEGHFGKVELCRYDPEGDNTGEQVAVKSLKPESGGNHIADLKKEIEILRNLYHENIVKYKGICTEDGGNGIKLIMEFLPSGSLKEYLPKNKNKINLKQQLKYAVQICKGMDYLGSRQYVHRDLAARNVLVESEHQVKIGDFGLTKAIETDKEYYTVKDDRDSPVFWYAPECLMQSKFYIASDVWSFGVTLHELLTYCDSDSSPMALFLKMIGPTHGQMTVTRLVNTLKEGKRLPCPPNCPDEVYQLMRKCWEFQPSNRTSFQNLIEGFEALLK
Outline: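 TR-FRET (LANCE) kinase assay using JAK1 at 187.5 ng/mL, ULight-JAK1 peptide at 300 nM and ATP at 150 μM, given as solution concentrations before mixing. Buffer was 50 mM HEPES pH 7.5 with 10 mM MgCl2 and 2 mM DTT, and the reaction ran 1 h at room temperature. Eu anti-phosphotyrosine signal at 665 nm was expressed relative to a no-enzyme well, taken as 100% inhibition.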

T1 sequence (P29597 whole entry): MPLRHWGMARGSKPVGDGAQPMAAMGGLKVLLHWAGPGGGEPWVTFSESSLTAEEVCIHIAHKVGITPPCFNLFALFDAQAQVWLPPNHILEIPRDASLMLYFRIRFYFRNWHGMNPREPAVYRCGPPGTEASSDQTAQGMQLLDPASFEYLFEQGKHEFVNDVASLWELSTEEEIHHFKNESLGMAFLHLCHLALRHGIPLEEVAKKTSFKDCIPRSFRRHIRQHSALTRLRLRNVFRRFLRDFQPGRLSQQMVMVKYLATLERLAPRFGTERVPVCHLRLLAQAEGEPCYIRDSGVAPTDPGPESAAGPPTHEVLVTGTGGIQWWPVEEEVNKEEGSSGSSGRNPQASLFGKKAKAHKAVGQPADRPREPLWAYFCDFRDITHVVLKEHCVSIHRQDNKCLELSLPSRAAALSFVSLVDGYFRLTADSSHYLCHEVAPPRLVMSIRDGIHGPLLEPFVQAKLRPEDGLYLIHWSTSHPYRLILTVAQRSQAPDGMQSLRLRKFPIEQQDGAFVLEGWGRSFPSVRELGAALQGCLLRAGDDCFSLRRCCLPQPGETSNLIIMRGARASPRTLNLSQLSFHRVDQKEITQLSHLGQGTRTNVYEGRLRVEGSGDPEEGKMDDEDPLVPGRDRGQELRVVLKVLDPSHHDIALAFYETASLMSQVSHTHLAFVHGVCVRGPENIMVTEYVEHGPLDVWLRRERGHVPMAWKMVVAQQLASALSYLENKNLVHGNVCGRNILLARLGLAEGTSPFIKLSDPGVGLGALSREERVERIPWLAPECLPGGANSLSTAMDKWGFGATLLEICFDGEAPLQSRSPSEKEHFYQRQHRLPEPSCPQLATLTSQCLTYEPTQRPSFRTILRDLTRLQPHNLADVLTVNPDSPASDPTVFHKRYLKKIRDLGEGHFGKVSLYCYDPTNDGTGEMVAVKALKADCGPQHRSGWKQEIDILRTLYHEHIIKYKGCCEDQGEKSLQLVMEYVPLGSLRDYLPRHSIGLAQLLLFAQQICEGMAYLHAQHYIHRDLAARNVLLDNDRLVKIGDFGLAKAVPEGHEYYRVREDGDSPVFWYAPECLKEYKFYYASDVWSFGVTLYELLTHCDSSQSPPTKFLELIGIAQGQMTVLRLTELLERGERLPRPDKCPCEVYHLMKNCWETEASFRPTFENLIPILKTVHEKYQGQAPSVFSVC

Row | inhibition at 1 µM (Tyk2) | inhibition at 1 µM (JAK1) | Structure (SMILES)
1 | 97% | 96% | NC(=O)c1ccc(-c2nn(C3CCCC3)c3cc[nH]c(=O)c23)cc1 [Example 142, 4-(1-cyclopentyl-4-oxo-4,5-dihydro-1H-pyrazolo[4,3-c]pyridin-3-yl)benzamide]
2 | 92% | 93% | NC(=O)c1cccc(-c2nn(C3CCCC3)c3cc[nH]c(=O)c23)c1 [Example 143, 3-(1-cyclopentyl-4-oxo-4,5-dihydro-1H-pyrazolo[4,3-c]pyridin-3-yl)benzamide]
3 | 95% | 99% | NC(=O)c1cc(-c2nn(-c3c(F)cccc3F)c3c(Br)c[nH]c(=O)c23)cs1 [Example 144, 4-(7-bromo-1-(2,6-difluorophenyl)-4-oxo-4,5-dihydro-1H-pyrazolo[4,3-c]pyridin-3-yl)thiophene-2-carboxamide]
4 | 100% | 99% | CNC(=O)c1cc(-c2nn(-c3c(F)cccc3F)c3c(Br)c[nH]c(=O)c23)cs1 [Example 145, 4-(7-bromo-1-(2,6-difluorophenyl)-4-oxo-4,5-dihydro-1H-pyrazolo[4,3-c]pyridin-3-yl)-N-methylthiophene-2-carboxamide]
5 | 98% | 69% | N#CCc1cccc(-c2nn(-c3c(F)cccc3F)c3c(Br)c[nH]c(=O)c23)c1 [Example 146, (3-(7-bromo-1-(2,6-difluorophenyl)-4-oxo-4,5-dihydro-1H-pyrazolo[4,3-c]pyridin-3-yl)phenyl)acetonitrile]
6 | 99% | 74% | NC(=O)Cc1cccc(-c2nn(-c3c(F)cccc3F)c3c(Br)c[nH]c(=O)c23)c1 [Example 147, 2-(3-(7-bromo-1-(2,6-difluorophenyl)-4-oxo-4,5-dihydro-1H-pyrazolo[4,3-c]pyridin-3-yl)phenyl)acetamide]
7 | 98% | 99% | NC(=O)c1cc(-c2nn(C3CCC4(CC3)OCCO4)c3cc[nH]c(=O)c23)cs1 [Example 148, 4-(1-(1,4-dioxaspiro[4.5]dec-8-yl)-4-oxo-4,5-dihydro-1H-pyrazolo[4,3-c]pyridin-3-yl)thiophene-2-carboxamide]
8 | 99% | 100% | CCC(CC)n1nc(-c2csc(C(N)=O)c2)c2c(=O)[nH]ccc21 [Example 149, 4-(4-oxo-1-(pentan-3-yl)-4,5-dihydro-1H-pyrazolo[4,3-c]pyridin-3-yl)thiophene-2-carboxamide]
9 | 98% | 99% | CCC(COC)n1nc(-c2csc(C(N)=O)c2)c2c(=O)[nH]ccc21 (stereo not drawn) [Example 150, 4-(1-(1-methoxybutan-2-yl)-4-oxo-4,5-dihydro-1H-pyrazolo[4,3-c]pyridin-3-yl)thiophene-2-carboxamide]
10 | 98% | 98% | O=c1[nH]ccc2c1c(-c1cn[nH]c1)nn2-c1c(F)cccc1F [Example 151, 1-(2,6-difluorophenyl)-3-(1H-pyrazol-4-yl)-1,5-dihydro-4H-pyrazolo[4,3-c]pyridin-4-one]
11 | 99% | 97% | N#CCc1cc(-c2nn(-c3c(F)cccc3F)c3c(Cl)c[nH]c(=O)c23)cs1 [Example 152, (4-(7-chloro-1-(2,6-difluorophenyl)-4-oxo-4,5-dihydro-1H-pyrazolo[4,3-c]pyridin-3-yl)-2-thienyl)acetonitrile]
12 | 99% | 100% | CNC(=O)c1cc(-c2nn(C3CCCC3)c3cc[nH]c(=O)c23)cs1 [Example 155, 4-(1-cyclopentyl-4-oxo-4,5-dihydro-1H-pyrazolo[4,3-c]pyridin-3-yl)-N-methylthiophene-2-carboxamide]
13 | 100% | 100% | O=C(NC1CC1)c1cc(-c2nn(C3CCCC3)c3cc[nH]c(=O)c23)cs1 [Example 156, 4-(1-cyclopentyl-4-oxo-4,5-dihydro-1H-pyrazolo[4,3-c]pyridin-3-yl)-N-cyclopropylthiophene-2-carboxamide]
14 | 99% | 100% | O=C(NCCO)c1cc(-c2nn(C3CCCC3)c3cc[nH]c(=O)c23)cs1 [Example 157, 4-(1-cyclopentyl-4-oxo-4,5-dihydro-1H-pyrazolo[4,3-c]pyridin-3-yl)-N-(2-hydroxyethyl)thiophene-2-carboxamide]
15 | 91% | 91% | NC(=O)Cc1cccc(-c2nn(C3CCCC3)c3cc[nH]c(=O)c23)c1 [Example 158, 2-(3-(1-cyclopentyl-4-oxo-4,5-dihydro-1H-pyrazolo[4,3-c]pyridin-3-yl)phenyl)acetamide]
16 | 87% | 91% | NS(=O)(=O)c1cccc(-c2nn(C3CCCC3)c3cc[nH]c(=O)c23)c1 [Example 159, 3-(1-cyclopentyl-4-oxo-4,5-dihydro-1H-pyrazolo[4,3-c]pyridin-3-yl)benzenesulfonamide]
17 | 98% | 98% | NC(=O)Cc1cc(-c2nn(-c3c(F)cccc3F)c3c(Cl)c[nH]c(=O)c23)cs1 [Example 160, 2-(4-(7-chloro-1-(2,6-difluorophenyl)-4-oxo-4,5-dihydro-1H-pyrazolo[4,3-c]pyridin-3-yl)-2-thienyl)acetamide]
18 | 99% | 79% | O=c1[nH]cc(Cl)c2c1c(-c1ccc(N3CCOCC3)cc1)nn2-c1c(F)cccc1F [Example 161, 7-chloro-1-(2,6-difluorophenyl)-3-(4-(morpholin-4-yl)phenyl)-1,5-dihydro-4H-pyrazolo[4,3-c]pyridin-4-one]
19 | 99% | 99% | CNC(=O)c1cc(-c2nn(-c3c(F)cccc3F)c3c(Cl)c[nH]c(=O)c23)cs1 [Example 162, 4-(7-chloro-1-(2,6-difluorophenyl)-4-oxo-4,5-dihydro-1H-pyrazolo[4,3-c]pyridin-3-yl)-N-methylthiophene-2-carboxamide]
20 | 100% | 98% | N#CC1(NC(=O)c2cc(-c3nn(-c4c(F)cccc4F)c4c(Cl)c[nH]c(=O)c34)cs2)CC1 [Example 163, 4-(7-chloro-1-(2,6-difluorophenyl)-4-oxo-4,5-dihydro-1H-pyrazolo[4,3-c]pyridin-3-yl)-N-(1-cyanocyclopropyl)thiophene-2-carboxamide]
21 | 99% | 66% | O=c1[nH]cc(Cl)c2c1c(-c1ccc(N3CCOCC3)nc1)nn2-c1c(F)cccc1F [Example 164, 7-chloro-1-(2,6-difluorophenyl)-3-(6-(morpholin-4-yl)pyridin-3-yl)-1,5-dihydro-4H-pyrazolo[4,3-c]pyridin-4-one]
22 | 98% | 96% | N#Cc1c[nH]c(=O)c2c(-c3csc(C(N)=O)c3)nn(C3CCCC3)c12 [Example 165, 4-(7-cyano-1-cyclopentyl-4-oxo-4,5-dihydro-1H-pyrazolo[4,3-c]pyridin-3-yl)thiophene-2-carboxamide]
23 | 100% | 98% | Cn1cc(NC(=O)c2cc(-c3nn(-c4c(F)cccc4F)c4c(Cl)c[nH]c(=O)c34)cs2)cn1 [Example 166, 4-(7-chloro-1-(2,6-difluorophenyl)-4-oxo-4,5-dihydro-1H-pyrazolo[4,3-c]pyridin-3-yl)-N-(1-methyl-1H-pyrazol-4-yl)thiophene-2-carboxamide]
24 | 97% | 53% | N#CCOc1ccc(-c2nn(-c3c(F)cccc3F)c3c(Cl)c[nH]c(=O)c23)cc1 [Example 167, (4-(7-chloro-1-(2,6-difluorophenyl)-4-oxo-4,5-dihydro-1H-pyrazolo[4,3-c]pyridin-3-yl)phenoxy)acetonitrile]
25 | 97% | 46% | O=c1[nH]cc(Cl)c2c1c(-c1cccc(OCCO)c1)nn2-c1c(F)cccc1F [Example 168, 7-chloro-1-(2,6-difluorophenyl)-3-(3-(2-hydroxyethoxyl)phenyl)-1,5-dihydro-4H-pyrazolo[4,3-c]pyridin-4-one]
26 | 99% | 79% | NC(=O)COc1ccc(-c2nn(-c3c(F)cccc3F)c3c(Cl)c[nH]c(=O)c23)cc1 [Example 169, 2-(4-(7-chloro-1-(2,6-difluorophenyl)-4-oxo-4,5-dihydro-1H-pyrazolo[4,3-c]pyridin-3-yl)phenoxy)acetamide]
27 | 98% | 99% | NC(=O)c1cc(-c2nn(C3CCC(=O)CC3)c3cc[nH]c(=O)c23)cs1 [Example 170, 4-(4-oxo-1-(4-oxocyclohexyl)-4,5-dihydro-1H-pyrazolo[4,3-c]pyridin-3-yl)thiophene-2-carboxamide]
28 | 100% | 100% | NC(=O)c1cc(-c2nn(C3CCC(O)CC3)c3cc[nH]c(=O)c23)cs1 (stereo not drawn) [Example 171, 4-(1-(4-hydroxycyclohexyl)-4-oxo-4,5-dihydro-1H-pyrazolo[4,3-c]pyridin-3-yl)thiophene-2-carboxamide]
29 | 97% | 99% | NC(=O)c1cc(-c2nn(C3CCC(O)(c4ccccc4)CC3)c3cc[nH]c(=O)c23)cs1 (stereo not drawn) [Example 172, 4-(1-(4-hydroxy-4-phenylcyclohexyl)-4-oxo-4,5-dihydro-1H-pyrazolo[4,3-c]pyridin-3-yl)thiophene-2-carboxamide]
30 | 96% | 99% | NS(=O)(=O)c1ccc(-c2nn(C3CCC(=O)CC3)c3cc[nH]c(=O)c23)cc1 [Example 173, 4-(4-oxo-1-(4-oxocyclohexyl)-4,5-dihydro-1H-pyrazolo[4,3-c]pyridin-3-yl)benzenesulfonamide]
